The results in this text go back to patent US20260226041A1 (ARIGENX THERAPEUTICS CO., LTD., priority 2023, published 2026).

Where a name gives a salt, the structure may show the parent alone. Read-outs that look alike come from different tables or passages of the source.

Data set [1] has as its target T1, human AHR (Homo sapiens, UniProt P35869).
T1 sequence (P35869 11-848): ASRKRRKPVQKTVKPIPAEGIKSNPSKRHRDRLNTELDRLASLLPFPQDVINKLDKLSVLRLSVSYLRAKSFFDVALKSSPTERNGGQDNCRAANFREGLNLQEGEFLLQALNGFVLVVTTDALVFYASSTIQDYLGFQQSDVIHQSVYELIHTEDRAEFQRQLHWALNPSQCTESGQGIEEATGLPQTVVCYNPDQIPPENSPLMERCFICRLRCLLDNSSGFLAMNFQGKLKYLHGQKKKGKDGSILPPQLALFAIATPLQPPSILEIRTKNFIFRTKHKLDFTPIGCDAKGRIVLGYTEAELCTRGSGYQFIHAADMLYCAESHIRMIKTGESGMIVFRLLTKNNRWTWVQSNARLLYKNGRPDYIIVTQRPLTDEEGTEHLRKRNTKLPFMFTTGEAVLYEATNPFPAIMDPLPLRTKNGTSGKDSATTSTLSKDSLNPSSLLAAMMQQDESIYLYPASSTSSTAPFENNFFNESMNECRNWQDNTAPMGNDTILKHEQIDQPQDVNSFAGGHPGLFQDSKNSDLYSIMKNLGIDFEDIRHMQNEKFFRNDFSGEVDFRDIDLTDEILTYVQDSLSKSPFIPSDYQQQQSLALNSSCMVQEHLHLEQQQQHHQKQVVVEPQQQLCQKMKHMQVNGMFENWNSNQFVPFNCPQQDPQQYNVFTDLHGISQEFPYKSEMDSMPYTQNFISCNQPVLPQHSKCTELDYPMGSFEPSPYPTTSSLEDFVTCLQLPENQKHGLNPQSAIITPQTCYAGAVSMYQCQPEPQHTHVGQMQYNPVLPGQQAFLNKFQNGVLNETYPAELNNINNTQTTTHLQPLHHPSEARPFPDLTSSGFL
Nature of the data set: Human AHR agonist luciferase assay (CYP1A1 promoter Nano-luc reporter in HepG2 cells).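 Further: stably transfected HepG2 clone, DRE-containing 1200 bp promoter region driving Nano-luc, treated 4 to 24 h with 11-point dilutions in tryptophan-free medium, medium-only wells as baseline.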
Method: To detect AHR activation, a reporter gene plasmid was constructed by placing the gene sequence from −1200 bp to 0 bp upstream of CYP1A1 in front of a Nano-luc luciferase reporter gene according to conventional construction methods of reporter gene plasmids in the art. The reporter gene plasmid was transfected into human hepatoma HepG2 cells by a conventional liposome transfection method in the art, and stably expressing cells were selected by puromycin. The selected cells were diluted to a concentration of 5 cells/mL and seeded into a 96-well plate at 100 μL/well, and single clones were obtained after growth. A single clone with normal morphology, normal growth, and the highest induction signal was selected for the human AHR agonist luciferase assay.
On day one, the HepG2 monoclonal cell line stably expressing reporter gene was counted and seeded into a white opaque 96-well plate at a density of 1×10^4 cells per well −8×10^4 cells per well using 100 μL of complete medium without tryptophan and phenol red (minimal essential medium (MEM) without tryptophan and phenol red, 10% (v/v) fetal bovine serum, 1× non-essential amino acids, 1× sodium pyruvate, and 1× GlutaMax). The cells were cultured in an incubator maintained at 37° C. with 5% (v/v) CO2 for 24 hours.
Test compounds were prepared as 10 mmol/L stock solutions in dimethyl sulfoxide (DMSO) and stored at 4° C. protected from light. Before treatment, the compound stock solutions, positive control compounds (e.g., dioxin, 2-(1H-indole-3-carbonyl)thiazole-4-carboxylic acid methyl ester (ITE), or kynurenine), and a negative control compound (DMSO) were subjected to preliminary dilution (determined based on pre-experiments) with the complete medium without tryptophan and phenol red, followed by 3- to 20-fold serial dilutions to 11 concentration points to obtain 2× dilution solutions. When treating the cells, 50 μL of medium was first aspirated from the 96-well plate containing the seeded cells, and then 50 μL of the serially diluted 2× dilution solution was added. Each compound was tested in duplicate, and each duplicate experiment included a well with a concentration of 0 (i.e., containing only the medium) to determine the baseline. The reporter cells were returned to the incubator and incubated for 4 to 24 hours after treatment.
After treatment, 100 μL/well of Nano-Glo Luciferase Assay Reagent was added to the 96-well plate, and the relative light unit (RLU) of each well was measured. The RLU values for the wells with the concentration of 0 on the 96-well plates were averaged to calculate the baseline Ave RLU^Vehicle. The activity of AHR induced by the test compounds at different concentrations was calculated according to Formula (1) based on the ratio of RLU^Test Cmpd from the experimental groups to the baseline Ave RLU^Vehicle, to determine the activation fold.
The activation fold and the corresponding compound concentration were fitted using GraphPad Prism 9 with [Agonist] vs. response—variable slope (four parameters) to calculate the EC50 of the compound for AHR activation.

In data set [2] the target is T2, rat AHR (Rattus norvegicus, UniProt P41738).
T2 construct: The reporter gene was introduced into a genome of rat hepatoma H-4-II-E cells via lentiviral infection; endogenous in cells; host or cells: H-4-II-E (rat hepatoma) with a lentivirally integrated 6x XRE Nano-luc reporter
T2 sequence (P41738 10-853): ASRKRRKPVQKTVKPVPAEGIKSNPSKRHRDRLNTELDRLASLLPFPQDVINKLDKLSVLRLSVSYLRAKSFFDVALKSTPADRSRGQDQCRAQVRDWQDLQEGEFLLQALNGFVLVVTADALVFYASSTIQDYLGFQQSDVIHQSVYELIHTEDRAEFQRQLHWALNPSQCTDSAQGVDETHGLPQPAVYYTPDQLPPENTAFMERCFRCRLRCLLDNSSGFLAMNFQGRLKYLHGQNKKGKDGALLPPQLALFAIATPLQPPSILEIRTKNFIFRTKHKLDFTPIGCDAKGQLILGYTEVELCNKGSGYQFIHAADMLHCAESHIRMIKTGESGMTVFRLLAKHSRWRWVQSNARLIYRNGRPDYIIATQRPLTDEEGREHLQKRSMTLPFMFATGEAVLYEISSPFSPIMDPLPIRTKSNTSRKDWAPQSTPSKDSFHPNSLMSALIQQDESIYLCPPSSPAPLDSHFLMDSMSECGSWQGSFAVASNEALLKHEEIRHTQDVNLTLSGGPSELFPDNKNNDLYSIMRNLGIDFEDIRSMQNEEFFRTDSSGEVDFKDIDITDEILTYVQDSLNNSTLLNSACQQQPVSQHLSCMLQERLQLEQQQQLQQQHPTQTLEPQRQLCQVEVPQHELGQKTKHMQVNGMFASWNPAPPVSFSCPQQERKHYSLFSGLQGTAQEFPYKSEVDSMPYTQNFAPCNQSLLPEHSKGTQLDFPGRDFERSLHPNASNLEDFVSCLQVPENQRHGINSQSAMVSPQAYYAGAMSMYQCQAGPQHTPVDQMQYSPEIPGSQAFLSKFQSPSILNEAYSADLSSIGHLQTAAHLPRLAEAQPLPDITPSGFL
The data set is described as follows: Rat AHR agonist luciferase assay (6x XRE Nano-luc reporter in H-4-II-E cells). Type of data set: cell-based. Particulars: AHR activation, rat hepatoma H-4-II-E reporter cells, incubated 4 to 24 hours; read-out: H4IIE EC50. The text has this: A lentivirus containing the reporter gene was generated by co-transfecting the transfer plasmid with packaging plasmids into 293T cells using conventional transfection methods in the art, followed by purification. The reporter gene was introduced into a genome of rat hepatoma H-4-II-E cells via lentiviral infection, and cells stably expressing the reporter gene were selected with puromycin for the rat AHR agonist luciferase assay.

Data set [3] concerns the target mouse AHR (Mus musculus, UniProt P30561). Nature of the data set: Mouse AHR agonist luciferase assay (6x XRE Nano-luc reporter in Hepa1-6 cells).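 Further: stable Hepa1-6 reporter line, 4–24 h exposure, 11-point serial dilution, Nano-Glo luminescence as fold over medium-only baseline, EC50 from four-parameter fit of activation fold.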
Method: The reporter gene plasmid was transfected into mouse hepatoma Hepa1-6 cells by a conventional liposome transfection method in the art, and stably expressing cells were selected by puromycin for the mouse AHR agonist luciferase assay.
On day one, the stably expressing reporter gene Hepa1-6 cell line was counted and seeded into a white opaque 96-well plate at a density of 1×10^4 cells per well −8×10^4 cells per well using 100 μL of phenol red-free Dulbecco's Modified Eagle Medium (DMEM) (DMEM without phenol red, 10% fetal bovine serum). The cells were cultured in an incubator maintained at 37° C. with 5% CO2 for 24 hours.
Test compounds were prepared as 10 mM stock solutions in DMSO and stored at 4° C. protected from light. Before treatment, the compound stock solutions, positive control compounds (e.g., dioxin, ITE, or kynurenine), and a negative control compound (DMSO) were subjected to preliminary dilution (determined based on pre-experiments) with complete medium without tryptophan and phenol red, followed by 3- to 20-fold serial dilutions to 11 concentration points to obtain 10× dilution solutions. When treating the cells, 10 μL of medium was first aspirated from the 96-well plate containing the seeded cells, and then 10 μL of the serially diluted 10× dilution solution was added. Each compound was tested in duplicate, and each duplicate experiment included a well with a concentration of 0 (i.e., containing only medium) to determine the baseline. The reporter cells were returned to the incubator and incubated for 4 to 24 hours after treatment.
After treatment, 100 μL/well of Nano-Glo Luciferase Assay Reagent was added to the 96-well plate, and the RLU of each well was measured. The RLU values for the wells with the concentration of 0 on the 96-well plates were averaged to calculate the baseline Ave RLU^Vehicle The activity of AHR induced by the test compounds at different concentrations was calculated according to Formula (1) based on the ratio of RLU^Test Cmpd from the experimental groups to the baseline Ave RLU^Vehicle, to determine the activation fold.
The activation fold and the corresponding compound concentration were fitted using GraphPad Prism 9 with [Agonist] vs. response—variable slope (four parameters) to determine the EC50 of the compound for AHR activation.
[4] abbreviates: read-out: HepG2 EC50, AHR activation, human hepatoma HepG2 reporter cells, incubated 4 to 24 hours.

Chain of mouse AHR (P30561 10-805 limits assumed): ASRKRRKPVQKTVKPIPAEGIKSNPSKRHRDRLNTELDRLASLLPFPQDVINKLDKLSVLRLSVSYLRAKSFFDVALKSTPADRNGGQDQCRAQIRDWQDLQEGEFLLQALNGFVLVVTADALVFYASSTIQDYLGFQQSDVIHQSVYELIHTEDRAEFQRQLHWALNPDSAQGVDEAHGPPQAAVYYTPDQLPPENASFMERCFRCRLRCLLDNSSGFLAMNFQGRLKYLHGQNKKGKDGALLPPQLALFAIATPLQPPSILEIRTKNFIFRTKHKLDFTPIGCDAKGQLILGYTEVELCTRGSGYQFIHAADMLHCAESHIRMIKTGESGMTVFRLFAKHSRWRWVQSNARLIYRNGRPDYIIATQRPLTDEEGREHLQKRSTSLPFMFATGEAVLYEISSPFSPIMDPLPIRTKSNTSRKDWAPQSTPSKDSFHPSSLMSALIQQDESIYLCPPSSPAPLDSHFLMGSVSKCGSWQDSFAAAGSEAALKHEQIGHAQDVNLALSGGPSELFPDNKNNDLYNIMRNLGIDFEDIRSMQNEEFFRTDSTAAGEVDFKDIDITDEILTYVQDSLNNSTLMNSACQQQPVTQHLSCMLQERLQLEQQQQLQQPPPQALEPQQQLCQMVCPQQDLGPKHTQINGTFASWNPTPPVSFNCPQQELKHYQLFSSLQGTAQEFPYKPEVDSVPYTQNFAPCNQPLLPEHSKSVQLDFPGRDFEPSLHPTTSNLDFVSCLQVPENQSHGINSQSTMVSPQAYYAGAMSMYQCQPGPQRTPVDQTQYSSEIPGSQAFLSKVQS
Chain of mouse AHR (P53762 whole entry partner): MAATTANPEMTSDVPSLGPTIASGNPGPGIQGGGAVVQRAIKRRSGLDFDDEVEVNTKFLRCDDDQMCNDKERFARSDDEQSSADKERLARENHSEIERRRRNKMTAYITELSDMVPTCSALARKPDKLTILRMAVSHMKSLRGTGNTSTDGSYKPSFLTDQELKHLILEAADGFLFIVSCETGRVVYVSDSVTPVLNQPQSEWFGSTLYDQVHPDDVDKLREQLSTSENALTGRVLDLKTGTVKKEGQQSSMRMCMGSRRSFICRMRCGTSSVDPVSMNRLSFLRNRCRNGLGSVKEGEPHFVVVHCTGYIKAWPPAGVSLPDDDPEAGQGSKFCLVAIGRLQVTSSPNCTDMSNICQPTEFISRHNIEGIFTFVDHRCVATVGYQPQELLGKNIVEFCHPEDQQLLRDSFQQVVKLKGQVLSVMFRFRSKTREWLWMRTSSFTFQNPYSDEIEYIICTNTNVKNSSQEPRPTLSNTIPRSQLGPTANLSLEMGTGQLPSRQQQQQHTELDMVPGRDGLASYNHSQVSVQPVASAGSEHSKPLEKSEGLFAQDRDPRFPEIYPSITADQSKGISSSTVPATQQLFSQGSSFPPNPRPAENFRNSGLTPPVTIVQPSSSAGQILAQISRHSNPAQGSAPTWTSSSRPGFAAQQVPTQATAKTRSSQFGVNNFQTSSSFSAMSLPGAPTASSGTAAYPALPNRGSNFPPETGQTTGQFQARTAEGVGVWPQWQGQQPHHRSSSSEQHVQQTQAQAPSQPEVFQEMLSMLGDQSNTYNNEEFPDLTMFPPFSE

As a reminder, the EC50 is the concentration at which the effect is half-maximal. Consider `CN1CCC(c2csc(C(=O)c3c[nH]c4cc(F)ccc34)n2)C1=O` (centres unmarked) [Compound 7-2], for which the EC50 was under 500 nM in data set [1] and 2000 to 100000 nM in data set [2].

On to `O=C(c1nc(C2(Cl)CCOC2=O)cs1)c1c[nH]c2ccccc12` (centres unmarked) [Compound 4], for which the EC50 in data set [3] was under 100 nM; in data set [1], under 500 nM; in data set [2], at most 10 nM.

With `COc1ccc2[nH]cc(C(=O)c3nc(C4CC(C)OC4=O)cs3)c2c1` (centres unmarked) [Compound 8-5], the figures for the EC50 in data set [3] and in data set [1] were under 100 nM and under 500 nM, respectively.

Regarding `CN1CCC(c2csc(C(=O)c3c[nH]c4ccccc34)n2)C1=O` (centres unmarked) [Compound 7], the figures for the EC50 in data set [1] and in data set [2] were under 500 nM and 2000 to 100000 nM, respectively.

Take `O=C(c1nc(C2CCOC2=O)cs1)c1c[nH]c2ccccc12` (single isomer, unassigned) [Compound 1-isomer-B]: the EC50 in data set [3] (read-out: Hepa 1-6 EC50, AHR activation, mouse hepatoma Hepa1-6 reporter cells, incubated 4 to 24 hours) is under 100 nM; in data set [2], at most 10 nM.

As for `O=C(c1nc(C2(F)CCOC2=O)cs1)c1c[nH]c2ccccc12` (centres unmarked) [Compound 3], the figures for the EC50 in data set [3] and in data set [1] were under 100 nM and under 500 nM, respectively.

Turning to `COc1ccc2[nH]cc(C(=O)c3nc(C4(F)CCOC4=O)cs3)c2c1` (centres unmarked) [Compound 3-5], in data set [1], the EC50 was in the range of 500 to 2000 nM.

With `O=C(c1nc(C2CCOC2=O)cs1)c1c[nH]c2ccccc12` (single isomer, unassigned) [Compound 1-isomer-A], the EC50 in data set [3] was under 100 nM; in data set [1], under 500 nM; in data set [2], at most 10 nM.

For `C[C@H]1C[C@H](c2csc(C(=O)c3c[nH]c4ccccc34)n2)C(=O)O1` [Compound 8-trans-2], the EC50 in data set [1] (setting [4]) is under 500 nM.

With `COc1ccc2c(C(=O)c3nc(C4(F)CCOC4=O)cs3)c[nH]c2c1` (centres unmarked) [Compound 3-3], the EC50 in data set [3] is under 100 nM; in data set [1] it was under 500 nM.

For `CC(C)[C@H](N)C(=O)OCn1cc(C(=O)c2nc(C3CCOC3=O)cs2)c2ccccc21` (some centres unmarked) [Compound 13, hydrochloride], the EC50 in data set [3] was in the range of 100 to 2000 nM; in data set [1], 500 to 2000 nM.

Turning to `COCCOCCOCCOCC(=O)n1cc(C(=O)c2nc(C3CCOC3=O)cs2)c2ccccc21` (centres unmarked) [Compound 15, 3-{2-[1-(3,6,9,12-tetraoxatridecanoyl)-1H-indole-3-carbonyl]thiazol-4-yl}dihydrofuran-2(3H)-one], the EC50 in data set [3] was in the range of 100 to 2000 nM; in data set [1], 500 to 2000 nM.

As for `C[C@@H]1C[C@@H](c2csc(C(=O)c3c[nH]c4ccccc34)n2)C(=O)O1` [Compound 8-trans-1], the EC50 in data set [1] (setting [4]) is under 500 nM.

As for `O=C(c1nc(C2(F)CCOC2=O)cs1)c1c[nH]c2ccc(F)cc12` (centres unmarked) [Compound 3-4], the EC50 was 100 to 2000 nM in data set [3] and under 500 nM in data set [1].

With `CC1CC(c2csc(C(=O)c3c[nH]c4cc5c(cc34)OCO5)n2)C(=O)O1` (centres unmarked) [Compound 8-6], the EC50 in data set [3] was under 100 nM; in data set [1] it was under 500 nM.

For `CC1CC(c2csc(C(=O)c3c[nH]c4cc(F)ccc34)n2)C(=O)O1` (centres unmarked) [Compound 8-2], the EC50 in data set [3] was under 100 nM; in data set [1] it was under 500 nM.

On to `COc1ccc2c(C(=O)c3nc(C4CCN(C)C4=O)cs3)c[nH]c2c1` (centres unmarked) [Compound 7-3], for which the figures for the EC50 in data set [1] and in data set [2] were under 500 nM and 2000 to 100000 nM, respectively.

Take `O=C(c1nc(C2(O)CCOC2=O)cs1)c1c[nH]c2ccc(F)cc12` (centres unmarked) [Compound 2-4]: the half-maximal effective concentration (EC50) is under 100 nM in data set [3] and under 500 nM in data set [1].

As to `N#Cc1ccc2c(C(=O)c3nc(C4CCOC4=O)cs3)c[nH]c2c1` (centres unmarked) [Compound 1-9], the EC50 in data set [1] was under 500 nM.

With `COCCOCCOCCOCC(=O)OCn1cc(C(=O)c2nc(C3CCOC3=O)cs2)c2ccccc21` (centres unmarked) [Compound 14, 3,6,9,12-tetraoxatridecanoic acid {3-[4-(2-oxotetrahydrofuran-3-yl)thiazole-2-carbonyl]-1H-indol-1-yl}methyl ester], the EC50 fell in the range of 100 to 2000 nM in data set [3] and 500 to 2000 nM in data set [1].

In the case of `COc1ccc2[nH]cc(C(=O)c3nc(C4(O)CCOC4=O)cs3)c2c1` (centres unmarked) [Compound 2-5], the EC50 is under 100 nM in data set [3] and under 500 nM in data set [1].

In data set [1], `Cc1ccc2c(C(=O)c3nc(C4CCOC4=O)cs3)c[nH]c2c1` (centres unmarked) [Compound 1-8] registered an EC50 of under 500 nM.

`O=C1OCC(O)=C1c1csc(C(=O)c2c[nH]c3ccccc23)n1` [Compound 6] had an EC50 in data set [1] of 500 to 2000 nM.

Regarding `O=C(c1nc(C2CCOC2=O)cs1)c1cn(CO)c2ccccc12` (centres unmarked) [Compound 10, 3-{2-[1-(hydroxymethyl)indole-3-carbonyl]thiazol-4-yl}tetrahydrofuran-2-one], the figures for the EC50 in data set [3] and in data set [1] were 100 to 2000 nM and 500 to 2000 nM, respectively.

Regarding `CC1CC(c2csc(C(=O)c3c[nH]c4ccc(F)cc34)n2)C(=O)O1` (centres unmarked) [Compound 8-4], the results for the EC50 in data set [3] and in data set [1] were under 100 nM and under 500 nM, respectively.

In the case of `O=C(c1nc(C2(Cl)CCOC2=O)cs1)c1c[nH]c2ccc(F)cc12` (centres unmarked) [Compound 4-4], the EC50 in data set [1] was under 500 nM.

For the compound `O=C1OCC=C1c1csc(C(=O)c2c[nH]c3ccccc23)n1` [Compound 5], the EC50 in data set [3] is under 100 nM; in data set [1], under 500 nM.

For the compound `C[C@@H]1C[C@H](c2csc(C(=O)c3c[nH]c4ccccc34)n2)C(=O)O1` [Compound 8-cis-1], the EC50 in data set [1] (setting [4]) is under 500 nM.

`O=C(c1nc(C2CCOC2=O)cs1)c1cn(P(=O)(O)O)c2ccccc12` (centres unmarked) [Compound 11]: the results for the EC50 in data set [3] and in data set [1] were 100 to 2000 nM and 500 to 2000 nM, respectively.

As for `CC(C)[C@H](N)C(=O)n1cc(C(=O)c2nc(C3CCOC3=O)cs2)c2ccccc21` (stereo partly drawn) [Compound 9, 3-[2-({1-[(2S)-2-amino-3-methylbutanoyl]indol-3-yl}carbonyl)-1,3-thiazol-4-yl]tetrahydrofuran-2-one hydrochloride], the EC50 in data set [3] is 100 to 2000 nM; in data set [1] it was 500 to 2000 nM.

For the compound `COc1ccc2c(C(=O)c3nc(C4(Cl)CCOC4=O)cs3)c[nH]c2c1` (centres unmarked) [Compound 4-3], the EC50 in data set [1] was under 500 nM.

In the case of `COc1ccc2c(C(=O)c3nc(C4CC(C)OC4=O)cs3)c[nH]c2c1` (centres unmarked) [Compound 8-3], the values for the EC50 in data set [3] and in data set [1] were under 100 nM and under 500 nM, respectively.

With `O=C(c1nc(C2CCOC2=O)cs1)c1cn(COP(=O)(O)O)c2ccccc12` (centres unmarked) [Compound 12, {3-[4-(2-oxotetrahydrofuran-3-yl)thiazole-2-carbonyl]-1H-indol-1-yl}methylphosphoric acid], the figures for the EC50 in data set [3] and in data set [1] were 100 to 2000 nM and 500 to 2000 nM, respectively.

In the case of `O=C(c1nc(C2(F)CCOC2=O)cs1)c1c[nH]c2cc(F)ccc12` (centres unmarked) [Compound 3-2], the concentration giving a half-maximal response (EC50) in data set [3] is under 100 nM; in data set [1], under 500 nM.

Regarding `C[C@H]1C[C@@H](c2csc(C(=O)c3c[nH]c4ccccc34)n2)C(=O)O1` [Compound 8-cis-2], the EC50 in data set [1] (setting [4]) was under 500 nM.

With `CN1CCC(c2csc(C(=O)c3c[nH]c4ccc(F)cc34)n2)C1=O` (centres unmarked) [Compound 7-4], the EC50 was under 500 nM in data set [1] and 2000 to 100000 nM in data set [2].

Turning to `O=C(c1nc(C2CCOC2=O)cs1)c1c[nH]c2cc(Cl)ccc12` (centres unmarked) [Compound 1-7], the EC50 in data set [1] was under 500 nM.
